This is an account of results in publication PMC9655899, “Inhibition of Netosis with PAD Inhibitor Attenuates Endotoxin Shock Induced Systemic Inflammation” (International Journal of Molecular Sciences, 2022).

Common to all, as to assay type: biochemical
The target of one experiment is T1, PAD2 (Homo sapiens, UniProt Q9Y2J8).
T1 construct: gene PADI2
As to the kind of experiment: PAD enzyme activity assay with purchased human PAD2 (BAEE colorimetric assay described for PAD4).

The target of a further experiment is T2, PAD3 (Homo sapiens, UniProt Q9ULW8).
T2 construct: gene PADI3
T2 sequence (Q9ULW8 1-664): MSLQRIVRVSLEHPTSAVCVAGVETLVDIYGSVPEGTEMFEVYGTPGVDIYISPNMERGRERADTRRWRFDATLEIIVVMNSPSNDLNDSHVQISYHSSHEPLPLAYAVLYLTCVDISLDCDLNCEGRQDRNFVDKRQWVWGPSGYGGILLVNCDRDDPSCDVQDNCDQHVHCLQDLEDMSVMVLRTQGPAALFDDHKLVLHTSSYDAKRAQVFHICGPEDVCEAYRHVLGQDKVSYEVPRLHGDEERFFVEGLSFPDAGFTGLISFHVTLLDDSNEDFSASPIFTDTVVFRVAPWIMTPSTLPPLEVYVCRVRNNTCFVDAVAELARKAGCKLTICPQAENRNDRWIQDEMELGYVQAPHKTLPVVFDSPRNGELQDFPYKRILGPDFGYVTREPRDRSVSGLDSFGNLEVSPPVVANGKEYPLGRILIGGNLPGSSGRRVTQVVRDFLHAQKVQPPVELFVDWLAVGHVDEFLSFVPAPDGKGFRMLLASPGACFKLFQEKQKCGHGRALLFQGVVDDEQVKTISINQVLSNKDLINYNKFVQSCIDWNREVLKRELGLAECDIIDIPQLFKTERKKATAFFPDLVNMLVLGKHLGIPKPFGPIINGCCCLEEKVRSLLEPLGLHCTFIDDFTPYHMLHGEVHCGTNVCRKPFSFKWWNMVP
Description: PAD enzyme activity assay with purchased human PAD3 (BAEE colorimetric assay described for PAD4).

A further experiment deals with T3, human PAD4 (Homo sapiens, UniProt Q9UM07).
T3 construct: gene PADI4
T3 sequence (Q9UM07 whole entry): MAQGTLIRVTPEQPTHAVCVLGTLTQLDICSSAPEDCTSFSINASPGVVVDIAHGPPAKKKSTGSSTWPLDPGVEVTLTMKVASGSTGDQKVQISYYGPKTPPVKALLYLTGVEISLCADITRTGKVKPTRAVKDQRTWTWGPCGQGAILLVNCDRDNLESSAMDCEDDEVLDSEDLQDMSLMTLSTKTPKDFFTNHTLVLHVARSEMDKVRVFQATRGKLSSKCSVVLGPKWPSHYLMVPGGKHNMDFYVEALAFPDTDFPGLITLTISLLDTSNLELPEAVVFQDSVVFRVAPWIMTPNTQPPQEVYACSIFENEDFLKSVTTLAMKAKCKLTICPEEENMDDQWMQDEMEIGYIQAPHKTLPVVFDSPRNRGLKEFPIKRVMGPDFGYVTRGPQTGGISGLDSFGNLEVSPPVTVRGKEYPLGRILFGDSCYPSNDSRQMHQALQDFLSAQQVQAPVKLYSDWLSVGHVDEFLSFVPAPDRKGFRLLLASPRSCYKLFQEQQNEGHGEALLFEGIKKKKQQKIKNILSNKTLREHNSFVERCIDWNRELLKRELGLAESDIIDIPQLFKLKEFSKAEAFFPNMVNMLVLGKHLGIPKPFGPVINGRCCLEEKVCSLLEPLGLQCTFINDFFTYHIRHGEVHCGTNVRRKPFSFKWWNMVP
As to the kind of experiment: BAEE citrullination colorimetric assay (diacetyl monoxime, A465) with purchased enzyme, […] min preincubation.

The target in the next experiment is T4, mouse PAD4 (Mus musculus, UniProt Q9Z183).
T4 construct: gene Padi4
T4 sequence (Q9Z183 whole entry): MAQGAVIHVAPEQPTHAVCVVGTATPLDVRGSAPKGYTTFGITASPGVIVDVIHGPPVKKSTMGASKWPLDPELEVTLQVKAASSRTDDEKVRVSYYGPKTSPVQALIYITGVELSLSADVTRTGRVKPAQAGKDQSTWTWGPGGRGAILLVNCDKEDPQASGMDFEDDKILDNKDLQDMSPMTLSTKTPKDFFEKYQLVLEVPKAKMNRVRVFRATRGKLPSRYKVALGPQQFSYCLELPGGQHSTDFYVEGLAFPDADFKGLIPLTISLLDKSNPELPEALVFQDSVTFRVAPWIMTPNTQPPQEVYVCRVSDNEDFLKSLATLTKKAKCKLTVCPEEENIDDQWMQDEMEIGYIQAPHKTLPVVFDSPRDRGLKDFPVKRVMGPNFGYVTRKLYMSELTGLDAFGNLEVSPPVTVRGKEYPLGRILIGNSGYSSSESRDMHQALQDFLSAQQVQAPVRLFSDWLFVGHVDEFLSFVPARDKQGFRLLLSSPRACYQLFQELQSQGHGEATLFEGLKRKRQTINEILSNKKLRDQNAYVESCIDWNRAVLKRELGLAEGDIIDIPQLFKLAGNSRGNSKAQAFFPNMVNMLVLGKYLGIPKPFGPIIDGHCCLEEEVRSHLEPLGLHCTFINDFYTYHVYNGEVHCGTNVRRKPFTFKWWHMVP
The experiment is described as above.

A further experiment concerns the target T5, PAD1 (Homo sapiens, UniProt Q9ULC6).
T5 construct: gene PADI1
T5 sequence (Q9ULC6 1-663): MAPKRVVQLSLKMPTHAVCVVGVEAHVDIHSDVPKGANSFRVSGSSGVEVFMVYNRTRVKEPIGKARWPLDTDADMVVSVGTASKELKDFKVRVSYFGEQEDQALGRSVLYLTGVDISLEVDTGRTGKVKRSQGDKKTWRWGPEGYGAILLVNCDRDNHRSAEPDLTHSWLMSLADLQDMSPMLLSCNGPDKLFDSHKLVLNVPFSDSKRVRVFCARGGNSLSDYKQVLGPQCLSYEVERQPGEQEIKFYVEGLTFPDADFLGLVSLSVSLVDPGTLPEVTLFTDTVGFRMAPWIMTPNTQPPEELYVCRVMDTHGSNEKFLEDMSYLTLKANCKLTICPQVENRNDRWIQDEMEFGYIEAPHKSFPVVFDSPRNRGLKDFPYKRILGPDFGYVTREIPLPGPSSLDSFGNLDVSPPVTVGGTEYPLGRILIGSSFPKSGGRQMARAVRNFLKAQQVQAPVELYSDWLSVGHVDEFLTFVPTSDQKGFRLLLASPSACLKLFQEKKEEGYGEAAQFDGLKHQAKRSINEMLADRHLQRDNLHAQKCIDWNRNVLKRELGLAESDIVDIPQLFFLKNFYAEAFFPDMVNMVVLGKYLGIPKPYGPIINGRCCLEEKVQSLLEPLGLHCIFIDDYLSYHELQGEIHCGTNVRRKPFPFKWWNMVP
As to the kind of experiment: PAD enzyme activity assay with purchased human PAD1 (BAEE colorimetric assay described for PAD4).

T1 sequence (Q9Y2J8 whole entry): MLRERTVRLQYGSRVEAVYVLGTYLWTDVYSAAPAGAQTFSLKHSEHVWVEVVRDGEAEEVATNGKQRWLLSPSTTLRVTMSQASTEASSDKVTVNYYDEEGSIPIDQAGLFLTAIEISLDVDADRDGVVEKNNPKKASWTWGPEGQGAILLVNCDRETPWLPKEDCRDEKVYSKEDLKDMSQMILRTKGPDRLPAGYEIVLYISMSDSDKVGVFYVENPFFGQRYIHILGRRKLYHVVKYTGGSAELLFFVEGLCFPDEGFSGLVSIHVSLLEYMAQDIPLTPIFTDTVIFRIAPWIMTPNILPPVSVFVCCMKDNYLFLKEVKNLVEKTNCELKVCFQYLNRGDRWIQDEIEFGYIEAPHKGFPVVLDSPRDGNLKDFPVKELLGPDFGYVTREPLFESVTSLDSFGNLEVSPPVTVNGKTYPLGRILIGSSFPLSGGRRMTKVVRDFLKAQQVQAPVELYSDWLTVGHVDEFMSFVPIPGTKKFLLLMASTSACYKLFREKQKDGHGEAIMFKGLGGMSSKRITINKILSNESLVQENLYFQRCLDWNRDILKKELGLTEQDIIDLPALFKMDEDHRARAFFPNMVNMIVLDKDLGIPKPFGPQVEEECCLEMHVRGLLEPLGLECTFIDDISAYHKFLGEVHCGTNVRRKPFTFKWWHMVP

For the molecule `CN(C)c1ccc2cc(C(=O)N[C@@H](CCCNC(=N)CCl)C(=O)NCc3ccccc3)ccc2c1` [YW3-56], the IC50 is 6340 nM at PAD2; 53400 nM against PAD3; 1190 nM at human PAD4; 2540 nM against mouse PAD4; 1450 nM against PAD1.
